# According to US8664210B2, “Aminooxime derivatives of 2- and/or 4-substituted androstanes and androstenes as medicaments for cardiovascular disorders” (priority 2007, dated 2014):
# Structures can show the parent of a compound that is named as a salt. Where two headings read alike, the source gives them in different places.
# What was measured:
# [1] = target: Dog Kidney Na+, K+-ATPase (Canis lupus familiaris, UniProt P50997); assay: Dog kidney Na+,K+-ATPase inhibition (hydrolysis of 32P-ATP); assay type: biochemical
# [2] = tested on: anesthetized guinea-pig; assay: inotropic effect and lethal dose in anesthetized guinea-pig (infusion over 90 minutes); assay type: in vivo; settings: for Lethal dose/ED80: calculated in the died animals
# Procedure: The inotropic activity is shown as maximum increase in contractile force (Emax measured as +dP/dTmax), dose inducing maximum positive inotropic effect (EDmax), inotropic potency (ED80, dose increasing +dP/dTmax by 80%); the toxicity as the ratio between lethal dose and inotropic potency (calculated in the died animals). All animals, previously anesthetized, were administered the drug through infusion over a 90 minute period.
# [3] = target: Na+,K+-ATPase (Canis lupus familiaris, UniProt P50997); settings: relative to compound 22b; cited from earlier work
# [4] = anesthetized guinea-pig, infusion over 90 min
# [5] = dog kidney enzyme, read-out: Na+, K+-ATPase Inhibition IC50
structure (smiles),measurement,setting,value
"C[C@@H]1/C(=N/OCCN)CC[C@@]2(C)C1C(=O)C[C@@H]1[C@@H]2CC[C@]2(C)C(=O)CC[C@@H]12.Cl (stereo partly drawn) [Compd. 22d, (E)-3-(2-aminoethoxyimino)-4α-methylandrostan-6,17-dione hydrochloride]",IC50,[1],6000 nM
same,Dead/treated,[2]; [4],0/3
same,"ED80 (inotropic potency, dose increasing +dP/dTmax by 80%)",[2]; [4],23.0 µmol/kg
same,EDmax (dose inducing maximum positive inotropic effect),[2]; [4],149 µmol/kg
same,Emax % increase in +dP/dTmax (maximum increase in contractile force),[2]; [4],190%
same,Maximum dose infused,[2]; [4],250.3 µmol/kg
same,Notes (toxic signs during infusion),"[2]; anesthetized guinea-pig, infusion over 90 min, hydrochloride",tremors and contractions appeared during the infusion
same,times less active than des-methyl compound 22b,[3],30
"C[C@H]1O[C@@H](O[C@H]2[C@@H](O)C[C@H](O[C@H]3[C@@H](O)C[C@H](O[C@H]4CC[C@@]5(C)[C@H](CC[C@@H]6[C@@H]5C[C@@H](O)[C@]5(C)[C@@H](C7=CC(=O)OC7)CC[C@]65O)C4)O[C@@H]3C)O[C@@H]2C)C[C@H](O)[C@@H]1O [Digoxin, digoxin]",Dead/treated,[2]; [4],10/10
same,"ED80 (inotropic potency, dose increasing +dP/dTmax by 80%)",[2]; [4],0.29 µmol/kg
same,EDmax (dose inducing maximum positive inotropic effect),[2]; [4],0.65 µmol/kg
same,Emax % increase in +dP/dTmax (maximum increase in contractile force),[2]; [4],158%
same,Maximum dose infused,[2]; [4],1.16 µmol/kg
same,Lethal dose/ED80,[2],4.0
"CC1=C2CC[C@H]3[C@@H]4CC[C@H](O)[C@@]4(C)CC[C@@H]3[C@@]2(C)CC/C1=N\OCCN [I-aa, (E)-3-(2-Aminoethoxyimino)-4-methylandrost-4-en-17β-ol hydrochloride]",IC50,[1],4900 nM
"CC1(C)/C(=N/OCCN)CC[C@@]2(C)C1CC[C@H]1[C@@H]3CC[C@H](O)[C@@]3(C)CC[C@@H]12 (stereo partly drawn) [I-ag, (E)-3-(2-Aminoethoxyimino)-4,4-dimethylandrostan-17β-ol fumarate]",IC50,[1],3900 nM
"CC1(C)/C(=N/OCCCN)CC[C@@]2(C)C1CC[C@H]1[C@@H]3CC[C@H](O)[C@@]3(C)CC[C@@H]12 (stereo partly drawn) [I-ai, (E)-3-(3-Aminopropoxyimino)-4,4-dimethylandrostan-17β-ol fumarate]",IC50,[1],1900 nM
"CNCCCON=C1CCC2(C)C3CCC4(C)C(O)CCC4C3CCC2C1(C)C (stereo not drawn) [I-aj, (E)-3-(3-N-Methylaminopropoxyimino)-4,4-dimethylandrostan-17β-ol fumarate]",IC50,[1],1400 nM
"CC1(C)/C(=N/O[C@@H]2CCNC2)CC[C@@]2(C)C1CC[C@H]1[C@@H]3CC[C@H](O)[C@@]3(C)CC[C@@H]12 (stereo partly drawn) [I-ak, (E)-3-[3-(R)-Pyrrolidinyl]oxyimino-4,4-dimethylandrostan-17β-ol fumarate]",IC50,[1],2000 nM
"CC1(C)/C(=N/O[C@H]2CCNC2)CC[C@@]2(C)C1CC[C@H]1[C@@H]3CC[C@H](O)[C@@]3(C)CC[C@@H]12 (stereo partly drawn) [I-al, (E)-3-[3-(S)-Pyrrolidinyl]oxyimino-4,4-dimethylandrostan-17β-ol fumarate]",IC50,[1],2600 nM
"CC1(C)/C(=N/OCCN)CC[C@@]2(C)C1CC[C@@H]1[C@@H]2CC[C@]2(C)C(=O)CC[C@@H]12 (stereo partly shown) [I-am, (E)-3-(2-Aminoethoxyimino)-4,4-dimethylandrostan-17-one fumarate]",IC50,[1],1700 nM
"CC1(C)/C(=N/OCCCN)CC[C@@]2(C)C1CC[C@@H]1[C@@H]2CC[C@]2(C)C(=O)CC[C@@H]12 (stereo partly shown) [I-an, (E)-3-(3-Aminopropoxyimino)-4,4-dimethylandrostan-17-one fumarate]",IC50,[1],1500 nM
"CC1(C)/C(=N/O[C@@H]2CCNC2)CC[C@@]2(C)C1CC[C@@H]1[C@@H]2CC[C@]2(C)C(=O)CC[C@@H]12 (stereo partly drawn) [I-ao, (E)-3-[3-(R)-Pyrrolidinyl]oxyimino-4,4-dimethylandrostan-17-one fumarate]",IC50,[1],1300 nM
"CC1(C)/C(=N/OCCN)CC[C@@]2(C)C1C(=O)C[C@@H]1[C@@H]2CC[C@]2(C)C(=O)CC[C@@H]12 (stereo partly shown) [I-at, (E)-3-(2-Aminoethoxyimino)-4,4-dimethylandrostan-6,17-dione fumarate]",IC50,[1],1700 nM
"CC1(C)/C(=N/O[C@@H]2CCNC2)CC[C@]2(C)[C@H]3CC[C@]4(C)C(=O)CC[C@H]4[C@@H]3CC(=O)[C@@]12O [I-au, (E)-3-[3-(R)-Pyrrolidinyl]oxyimino-4,4-dimethyl-5α-hydroxyandrostan-6,17-dione fumarate]",IC50,[1],2200 nM
"C[C@]12CC[C@H]3[C@@H](CC=C4C5(CC5)/C(=N/OCCN)CC[C@@]43C)[C@@H]1CC[C@@H]2O [I-bb, (E)-3-(2-Aminoethoxyimino)-4-(spirocyclopropane)-5-androsten-17β-ol fumarate]",IC50,[1]; [5],1500 nM
"C[C@]12CC[C@H]3[C@@H](CC=C4C5(CC5)/C(=N/O[C@@H]5CCNC5)CC[C@@]43C)[C@@H]1CC[C@@H]2O [I-bc, (E)-3-[3-(R)-Pyrrolidinyl]oxyimino-4-spirocyclopropane androst-5-en-17β-ol fumarate]",IC50,[1]; [5],1800 nM
"CC[C@H]1/C(=N/OCCN)CC[C@@]2(C)C1C(=O)C[C@@H]1[C@@H]2CC[C@]2(C)C(=O)CC[C@@H]12 (stereo partly drawn) [I-bd, (E)-3-(2-Aminoethoxyimino)-4β-ethylandrostan-6,17-dione hydrochloride]",IC50,[1],130 nM
"CC[C@H]1/C(=N/O[C@@H]2CCNC2)CC[C@@]2(C)C1C(=O)C[C@@H]1[C@@H]2CC[C@]2(C)C(=O)CC[C@@H]12.Cl (stereo partly drawn) [I-be, (E)-3-[3-(R)-Pyrrolidinyl]oxyimino-4β-ethylandrostan-6,17-dione hydrochloride]",IC50,[1],49 nM
same,Dead/treated,[2]; [4],3/3
same,"ED80 (inotropic potency, dose increasing +dP/dTmax by 80%)",[2]; [4],1.40 µmol/kg
same,EDmax (dose inducing maximum positive inotropic effect),[2]; [4],2.81 µmol/kg
same,Emax % increase in +dP/dTmax (maximum increase in contractile force),[2]; [4],179%
same,Maximum dose infused,[2]; [4],12.6 µmol/kg
same,Lethal dose/ED80,[2],7.8
"C[C@]12CC[C@H]3[C@@H](CCC4C/C(=N\OCCN)[C@H](F)C[C@@]43C)[C@@H]1CC[C@@H]2O (stereo partly drawn) [I-bf, (E)-3-(2-Aminoethoxyimino)-2α-fluoroandrostan-17β-ol fumarate]",IC50,[1],2400 nM
"C[C@]12CC[C@H]3[C@@H](CCC4C/C(=N\O[C@@H]5CCNC5)[C@H](F)C[C@@]43C)[C@@H]1CC[C@@H]2O (stereo partly drawn) [I-bg, (E)-3-[3-(R)-Pyrrolidinyl]oxyimino-2α-fluoroandrostan-17β-ol fumarate]",IC50,[1],840 nM
"C[C@]12C[C@@H](F)/C(=N/O[C@@H]3CCNC3)CC1CC[C@@H]1[C@@H]2CC[C@]2(C)C(=O)CC[C@@H]12.Cl (stereo partly drawn) [I-bh, (E)-3-[3-(R)-Pyrrolidinyl]oxyimino-2α-fluoroandrostan-17-one hydrochloride]",IC50,[1],1100 nM
same,Dead/treated,[2]; [4],2/2
same,"ED80 (inotropic potency, dose increasing +dP/dTmax by 80%)",[2]; [4],7.00 µmol/kg
same,EDmax (dose inducing maximum positive inotropic effect),[2]; [4],14.0 µmol/kg
same,Emax % increase in +dP/dTmax (maximum increase in contractile force),[2]; [4],210%
same,Maximum dose infused,[2]; [4],100.8 µmol/kg
same,Lethal dose/ED80,[2],7.5
"C[C@]12CC[C@H]3[C@@H](CC(=O)C4C/C(=N\O[C@@H]5CCNC5)[C@H](F)C[C@@]43C)[C@@H]1CC[C@@H]2O (stereo partly drawn) [I-bi, (E)-3-[3-(R)-Pyrrolidinyl]oxyimino-2α-fluoro-17β-hydroxyandrostan-6-one fumarate]",IC50,[1],1300 nM
"CO/N=C1\C[C@H]2[C@@H]3CC[C@H](O)[C@@]3(C)CC[C@@H]2[C@@]2(C)C[C@@H](F)/C(=N/O[C@@H]3CCNC3)CC12 (stereo partly drawn) [I-bk, (E)-3-[3-(R)-Pyrrolidinyl]oxyimino-2α-fluoro-6-(E)-methoxyiminoandrostan-17β-ol fumarate]",IC50,[1]; [5],1900 nM
"C[C@]12CC/C(=N\O[C@@H]3CCNC3)[C@@H](F)C1CC[C@@H]1[C@@H]2CC[C@]2(C)C(=O)CC[C@@H]12 (stereo partly drawn) [I-bl, (E)-3-[3-(R)-Pyrrolidinyl]oxyimino-4α-fluoroandrostan-17-one fumarate]",IC50,[1],550 nM
"C[C@]12CC/C(=N\O[C@@H]3CCNC3)[C@@H](O)C1CC[C@@H]1[C@@H]2CC[C@]2(C)C(=O)CC[C@@H]12 (stereo partly drawn) [I-bn, (E)-3-[3-(R)-Pyrrolidinyl]oxyimino-4α-hydroxyandrostan-17-one fumarate]",IC50,[1],2700 nM
"C[C@]12CC/C(=N\O[C@@H]3CCNC3)C3(CC3)C1=CC[C@@H]1[C@@H]2CC[C@]2(C)C(=O)CC[C@@H]12 [I-bo, (E)-3-[(3-(R)-Pyrrolidinyl)oxyimino]-4-spirocyclopropane-5-androsten-17-one fumarate]",IC50,[1]; [5],690 nM
"CC12CCC3C(CCC4C5(CCCC5)C(=NOC5CCNC5)CCC34C)C1CCC2O [I-bq, (E)-3-[(3-(R)-Pyrrolidinyl)oxyimino]-4-spirocyclopentaneandrostan-17β-ol fumarate]",IC50,[1]; [5],3100 nM
"CC12CCC3C(C(O)CC4C5(CCCC5)C(=NOC5CCNC5)CCC34C)C1CCC2O [I-bs, (E)-3-[(3-(R)-Pyrrolidinyl)oxyimino]-4-spirocyclopentaneandrostan-7α,17β-diol fumarate]",IC50,[1]; [5],1100 nM
"CC(C)C1=C2CC[C@H]3[C@@H]4CC[C@H](O)[C@@]4(C)CC[C@@H]3[C@@]2(C)CC/C1=N\O[C@@H]1CCNC1 [I-bv, fumarate]",IC50,[1]; [5],3900 nM
"CC[C@@H]1/C(=N/O[C@@H]2CCNC2)CC[C@@]2(C)C1CC[C@H]1[C@@H]3CC[C@H](O)[C@@]3(C)CC[C@@H]12 (stereo partly drawn) [I-bw, (E)-3-[(3-(R)-Pyrrolidinyl)oxyimino]-4α-ethylandrostan-17β-ol fumarate]",IC50,[1],1800 nM
"CC[C@H]1/C(=N/O[C@@H]2CCNC2)CC[C@@]2(C)C1[C@@H](O)C[C@@H]1[C@@H]2CC[C@]2(C)C(=O)CC[C@@H]12 (stereo partly drawn) [I-bx, (E)-3-[3-(R)-Pyrrolidinyl]oxyimino-4β-ethyl-6α-hydroxyandrostan-17-one hydrochloride]",IC50,[1],65 nM
"CC1(C)/C(=N/O[C@@H]2CCNC2)CC[C@]2(C)[C@H]3CC[C@]4(C)[C@@H](O)CC[C@H]4[C@@H]3CC[C@@]12O [I-by, (E)-3-[3-(R)-Pyrrolidinyl]oxyimino-4,4-dimethylandrostan-5α,17β-diol hydrochloride]",IC50,[1],2200 nM
